Measured values reported in US7507760B2, “N-type calcium channel blockers” (Neuromed Pharmaceuticals Ltd., priority 2004, dated 2009).
Read-outs that look alike come from different tables or passages of the source.

Experiments:
[1] = biological target: T1, rat brain N-type calcium channel subunits (α1B+α2δ+β1b cDNA subunits) (Rattus norvegicus, UniProt Q02294); assay: N-type calcium channel block, whole cell patch clamp in HEK 293 cells; assay type: cell-based; conditions: holding potential −80 mV to +10 mV, 5 mM BaCl2
T1 construct: expressed in transfected cells; host or cells: HEK 293
Text: (§1) Normalized dose-response curves were fit (Sigmaplot 4.0, SPSS Inc., Chicago, Ill.) by the Hill equation to determine IC50 values. Steady-state inactivation curves were plotted as the normalized test pulse amplitude following 5 s inactivating prepulses at +10 mV increments. Inactivation curves were fit (Sigmaplot 4.0) with the Boltzman equation, Ipeak (normalized)=1/(1+exp((V-Vh)z/25.6)), where V and Vh are the conditioning and half inactivation potentials, respectively, and z is the slope factor.
The methods of Example 11 were followed with slight modifications as will be apparent from the description below.
N-type calcium channel blocking activity was assayed in human embryonic kidney cells, HEK 293, stably transfected with the rat brain N-type calcium channel subunits (α1B+α2δ+β1b cDNA subunits). Briefly, cells were cultured in Dulbecco's modified eagle medium (DMEM) supplemented with 10% fetal bovine serum, 200 U/ml penicillin and 0.2 mg/ml streptomycin at 37° C. with 5% CO2. At 85% confluency, cells were split with 0.25% trypsin/1 mM EDTA and plated at 10% confluency on glass coverslips. At 12 hours the medium was. replaced and the cells transfected using a standard calcium phosphate protocol and the appropriate calcium channel cDNAs. Fresh DMEM was supplied and the cells transferred to 28° C./5% CO2. Cells were incubated for 1 to 2 days to whole cell recording.
Whole cell patch clamp experiments were performed using an Axopatch 200B amplifier (Axon Instruments, Burlingame, Calif.) linked to a personal computer equipped with pCLAMP software. The external and internal recording solutions contained, respectively, 5 mM BaCl2, 10 mM MgCl2, 10 mM HEPES, 40 mM TEACl, 10 mM glucose, 87.5 mM CsCl (pH 7.2) and 108 mM CsMS, 4 mM MgCl2, 9 mM EGTA, 9 mM HEPES (pH 7.2). Currents were typically elicited from a holding potential of −80 mV to +10 mV using Clampex software (Axon Instruments). Typically, currents were first elicited with low frequency stimulation (0.067 Hz) and allowed to stabilize prior to application of the compounds. The compounds were then applied during the low frequency pulse trains for two to three minutes to assess tonic block, and subsequently the pulse frequency was increased to 0.2 Hz to assess frequency dependent block. Data were analyzed using Clampfit (Axon Instruments) and SigmaPlot 4.0 (Jandel Scientific).

[2] = biological target: T2, human α1G T-type channels (Homo sapiens, UniProt O43497); assay: Block of α1G T-type channels, whole-cell patch clamp in HEK cells; assay type: cell-based; conditions: test pulse −40 mV
T2 construct: expressed in transfected cells
Method: Standard patch-clamp techniques were employed to identify blockers of T-type currents. Briefly, previously described HEK cell lines stably expressing human α1G T-type channels were used for all the recordings (passage #: 4-20, 37° C., 5% CO2). To obtain T-type currents, plastic dishes containing semi-confluent cells were positioned on the stage of a ZEISS AXIOVERT S100 microscope after replacing the culture medium with external solution (Table 3). Whole-cell patches were obtained using pipettes (borosilicate glass with filament, O.D.: 1.5 mm, I.D.: 0.86 mm, 10 cm length), fabricated on a SUTTER P-97 puller with resistance values of ˜5 MΩ (Table 4 ).
T-type currents were reliably obtained by using two voltage protocols: “non-inactivating”, and “inactivation”. In the non-inactivating protocol, the holding potential is set at −110 mV and with a pre-pulse at −100 mV for 1 second prior to the test pulse at −40 mV for 50 ms. In the inactivation protocol, the pre-pulse is at approximately −85 mV for 1 second, which inactivates about ^15% of the T-type channels.
Test compounds were dissolved in external solution, 0.1-0.01% DMSO. After ˜10 min rest, they were applied by gravity close to the cell using a WPI microfil tubing. The “non-inactivated” pre-pulse was used to examine the resting block of a compound. The “inactivated” protocol was employed to study voltage-dependent block. However, the initial data shown below were mainly obtained using the non-inactivated protocol only. IC50 values are shown for various compounds of the invention in Table 5.

[3] = system: rat formalin model (paw flinches); assay: Formalin-induced pain model; assay type: in vivo; conditions: 30 mg/kg IP, 10 minutes prior to formalin, saline control=100%
Method: […] The compounds were reconstituted to stock solutions of approximately 10 mg/ml in propylene glycol. Eight Holtsman male rats of 275-375 g size were randomly selected per test article.
The following study groups in Table 6 were used, with test article, vehicle control (propylene glycol) and saline delivered intraperitoneally (IP):
Prior to initiation of drug delivery, baseline behavioral and testing data were taken.
On the morning of testing, a small metal band (0.5 g) was loosely placed around the right hind paw. The rat was placed in a cylindrical Plexiglas chamber for adaptation a minimum of 30 minutes. Test Article or Vehicle Control Article was administered 10 minutes prior to formalin injection (50 μl of 5% formalin) into the dorsal surface of the right hindpaw of the rat. The animal was then placed into the chamber of the automated formalin apparatus where movement of the formalin injected paw was monitored and the number of paw flinches tallied by minute over the next 60 minutes (Malmberg, A. B., supra).
Results are presented as Maximum Possible Effect±SEM, where saline control=100% (Table 7)

[4] = biological target: T3, P/Q-type channels (α1A+α2δ+β1b cDNA subunits) (Homo sapiens, UniProt O00555); assay: Selectivity for N-type over P/Q-type channels, whole cell patch recordings in HEK 293 cells; assay type: cell-based
T3 construct: expressed in transfected cells; host or cells: HEK 293 (human embryonic kidney cells)
Method: (§2) Calcium channel blocking activity was measured using whole cell patch recordings on human embryonic kidney cells transiently expressing rat α1B+α2δ+β1b channels (N-type channels) with 5 mM barium as a charge carrier. Channel block was also measured in P/Q-type channels (α1A+α2δ+β1b cDNA subunits) and L-type channels (α1C+α2δ+β1b cDNA subunits).
(§3) HEK 293 Host cells (ATCC# CRL 1573) were grown in standard DMEM medium supplemented with 2 mM glutamine and 10% fetal bovine serum. HEK 293 cells were transfected by a standard calcium-phosphate-DNA coprecipitation method using the rat α1B+β1b+α2δ N-type calcium channel subunits in a vertebrate expression vector (for example, see Current Protocols in Molecular Biology).
(§4) After an incubation period of 24 to 72 hours, the culture medium was removed and replaced with external recording solution (see below). Whole cell patch clamp experiments were performed using an Axopatch 200B amplifier (Axon Instruments, Burlingame, Calif.) linked to an IBM compatible personal computer equipped with pCLAMP software. Borosilicate glass patch pipettes (Sutter Instrument Co., Novato, Calif.) were polished (Microforge, Narishige, Japan) to a resistance of about 4 MΩ when filled with cesium methanesulfonate internal solution (composition in MM: 109 CsCH3 SO4, 4 MgCl2, 9 EGTA, 9 HEPES, pH 7.2). Cells were bathed in 5 mM Ba^++ (in mM: 5 BaCl2, 1 MgCl2, 10 HEPES, 40 tetraethylammonium chloride, 10 glucose, 87.5 CsCl pH 7.2). Current data shown were elicited by a train of 100 ms test pulses at 0.066 Hz from −100 mV and/or −80 mV to various potentials (min. −20 mV, max. +30 mV). Drugs were perfused directly into the vicinity of the cells, using a microperfusion system.
as §1
(§5) The same protocol was followed for cell lines expressing P/Q-type channels and L-type channels.

[5] = biological target: T4, L-type channels (α1C+α2δ+β1b cDNA subunits) (Homo sapiens, UniProt Q13936); assay: Selectivity for N-type over L-type channels, whole cell patch recordings in HEK 293 cells; assay type: cell-based
T4 construct: expressed in transfected cells; host or cells: HEK 293 (human embryonic kidney cells)
T4 sequence (Q13936 whole entry): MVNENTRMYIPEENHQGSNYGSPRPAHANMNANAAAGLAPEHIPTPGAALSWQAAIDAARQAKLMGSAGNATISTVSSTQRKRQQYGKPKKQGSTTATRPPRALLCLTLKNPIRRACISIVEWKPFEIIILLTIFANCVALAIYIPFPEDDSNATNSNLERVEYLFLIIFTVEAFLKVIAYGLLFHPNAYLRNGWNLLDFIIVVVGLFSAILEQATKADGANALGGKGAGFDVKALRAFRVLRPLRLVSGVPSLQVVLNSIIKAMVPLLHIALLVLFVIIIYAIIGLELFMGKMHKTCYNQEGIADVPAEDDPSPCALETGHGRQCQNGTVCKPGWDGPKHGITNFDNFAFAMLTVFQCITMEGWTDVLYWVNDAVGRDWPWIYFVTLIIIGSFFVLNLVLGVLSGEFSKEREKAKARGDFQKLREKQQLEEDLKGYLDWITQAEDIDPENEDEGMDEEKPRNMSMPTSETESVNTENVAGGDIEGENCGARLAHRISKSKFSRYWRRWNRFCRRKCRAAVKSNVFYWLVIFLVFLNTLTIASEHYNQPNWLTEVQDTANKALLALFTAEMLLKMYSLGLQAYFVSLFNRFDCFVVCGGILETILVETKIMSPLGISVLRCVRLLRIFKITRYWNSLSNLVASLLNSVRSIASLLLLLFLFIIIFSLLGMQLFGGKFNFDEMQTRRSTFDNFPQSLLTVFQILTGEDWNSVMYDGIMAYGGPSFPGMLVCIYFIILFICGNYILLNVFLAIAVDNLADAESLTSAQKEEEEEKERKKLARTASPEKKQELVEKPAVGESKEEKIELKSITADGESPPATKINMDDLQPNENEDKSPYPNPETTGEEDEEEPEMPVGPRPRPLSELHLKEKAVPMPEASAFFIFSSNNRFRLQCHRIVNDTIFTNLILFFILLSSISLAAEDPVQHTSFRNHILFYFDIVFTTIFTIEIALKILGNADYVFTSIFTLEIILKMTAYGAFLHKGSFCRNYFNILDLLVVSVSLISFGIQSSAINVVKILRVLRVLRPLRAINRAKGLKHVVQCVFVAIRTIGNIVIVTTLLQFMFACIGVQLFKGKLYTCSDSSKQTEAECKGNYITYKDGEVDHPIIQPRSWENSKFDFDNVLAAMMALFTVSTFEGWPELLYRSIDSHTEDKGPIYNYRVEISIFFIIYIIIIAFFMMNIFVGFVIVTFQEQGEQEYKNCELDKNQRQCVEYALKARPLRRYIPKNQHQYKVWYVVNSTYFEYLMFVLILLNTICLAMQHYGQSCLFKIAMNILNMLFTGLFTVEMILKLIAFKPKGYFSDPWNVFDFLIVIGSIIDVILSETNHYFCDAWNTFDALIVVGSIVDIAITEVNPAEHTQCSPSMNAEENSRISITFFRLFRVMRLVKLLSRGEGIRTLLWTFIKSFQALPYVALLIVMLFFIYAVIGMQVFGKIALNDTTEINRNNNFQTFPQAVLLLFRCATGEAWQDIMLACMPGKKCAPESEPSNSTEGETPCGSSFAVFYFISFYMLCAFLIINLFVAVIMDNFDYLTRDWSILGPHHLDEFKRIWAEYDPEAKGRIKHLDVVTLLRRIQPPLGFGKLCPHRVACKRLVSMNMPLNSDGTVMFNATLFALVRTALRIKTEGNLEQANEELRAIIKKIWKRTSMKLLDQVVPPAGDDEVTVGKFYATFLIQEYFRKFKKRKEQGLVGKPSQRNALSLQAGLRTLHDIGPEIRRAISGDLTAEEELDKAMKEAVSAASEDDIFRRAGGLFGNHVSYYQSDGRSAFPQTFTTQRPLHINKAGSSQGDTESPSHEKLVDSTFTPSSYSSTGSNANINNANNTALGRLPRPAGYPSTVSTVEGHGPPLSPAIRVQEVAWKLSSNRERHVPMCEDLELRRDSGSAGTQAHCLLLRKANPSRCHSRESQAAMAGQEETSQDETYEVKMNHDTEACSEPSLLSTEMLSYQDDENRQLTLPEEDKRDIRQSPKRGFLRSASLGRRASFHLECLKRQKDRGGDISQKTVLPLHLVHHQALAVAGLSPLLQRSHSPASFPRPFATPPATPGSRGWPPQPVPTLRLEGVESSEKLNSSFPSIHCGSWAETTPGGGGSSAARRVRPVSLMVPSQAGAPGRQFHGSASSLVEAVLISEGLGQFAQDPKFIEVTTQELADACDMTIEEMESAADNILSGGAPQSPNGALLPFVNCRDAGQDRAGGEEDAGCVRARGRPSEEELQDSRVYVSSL
T4 sequence (P54289 25-956 partner limits assumed): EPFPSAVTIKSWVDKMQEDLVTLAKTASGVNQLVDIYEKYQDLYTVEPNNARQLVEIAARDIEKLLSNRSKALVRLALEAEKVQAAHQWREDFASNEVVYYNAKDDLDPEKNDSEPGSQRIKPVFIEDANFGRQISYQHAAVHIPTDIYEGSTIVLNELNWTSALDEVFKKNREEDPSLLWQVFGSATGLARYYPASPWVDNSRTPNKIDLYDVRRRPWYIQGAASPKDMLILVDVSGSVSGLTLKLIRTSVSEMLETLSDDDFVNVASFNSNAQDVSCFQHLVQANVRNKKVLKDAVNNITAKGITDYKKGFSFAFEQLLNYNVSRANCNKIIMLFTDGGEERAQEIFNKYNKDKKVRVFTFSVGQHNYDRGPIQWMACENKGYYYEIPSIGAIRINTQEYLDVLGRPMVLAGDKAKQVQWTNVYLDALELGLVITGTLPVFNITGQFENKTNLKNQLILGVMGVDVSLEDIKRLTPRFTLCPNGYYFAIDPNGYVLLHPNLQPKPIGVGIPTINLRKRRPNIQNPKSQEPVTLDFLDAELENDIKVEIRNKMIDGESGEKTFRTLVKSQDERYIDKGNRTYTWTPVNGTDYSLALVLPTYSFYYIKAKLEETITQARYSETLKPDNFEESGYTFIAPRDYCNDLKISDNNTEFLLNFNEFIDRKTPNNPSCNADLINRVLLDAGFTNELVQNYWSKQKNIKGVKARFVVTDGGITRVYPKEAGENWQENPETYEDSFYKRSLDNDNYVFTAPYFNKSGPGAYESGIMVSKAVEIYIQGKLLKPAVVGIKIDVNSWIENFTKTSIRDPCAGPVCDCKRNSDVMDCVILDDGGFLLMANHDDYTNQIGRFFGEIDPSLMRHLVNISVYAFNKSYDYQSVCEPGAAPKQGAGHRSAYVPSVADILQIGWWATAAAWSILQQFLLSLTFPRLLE
T4 sequence (P54289 957-1103 partner limits assumed): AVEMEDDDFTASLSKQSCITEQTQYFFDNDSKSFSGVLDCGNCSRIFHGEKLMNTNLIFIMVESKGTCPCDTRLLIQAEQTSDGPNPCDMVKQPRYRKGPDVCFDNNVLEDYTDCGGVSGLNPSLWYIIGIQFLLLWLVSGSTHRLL
T4 sequence (Q02641 whole entry partner): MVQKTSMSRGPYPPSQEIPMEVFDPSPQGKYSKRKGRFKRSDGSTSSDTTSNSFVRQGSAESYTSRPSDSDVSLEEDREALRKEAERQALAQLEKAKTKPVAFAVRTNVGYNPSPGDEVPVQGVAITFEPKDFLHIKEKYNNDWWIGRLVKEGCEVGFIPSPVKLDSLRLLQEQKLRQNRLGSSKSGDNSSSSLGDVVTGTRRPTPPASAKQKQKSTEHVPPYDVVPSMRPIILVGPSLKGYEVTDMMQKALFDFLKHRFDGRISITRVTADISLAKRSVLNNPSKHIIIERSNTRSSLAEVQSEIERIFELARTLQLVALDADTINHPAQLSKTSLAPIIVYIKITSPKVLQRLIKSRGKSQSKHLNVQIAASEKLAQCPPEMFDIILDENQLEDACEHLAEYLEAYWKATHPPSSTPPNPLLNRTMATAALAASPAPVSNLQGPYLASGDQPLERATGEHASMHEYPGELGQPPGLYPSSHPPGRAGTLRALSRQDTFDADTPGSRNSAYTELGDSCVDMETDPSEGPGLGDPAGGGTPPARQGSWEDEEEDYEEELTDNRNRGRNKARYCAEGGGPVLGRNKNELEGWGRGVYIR
Method: as §2, §3, §4, §1, §5

[6] = system: T-type over L-type channels; conditions: cited from earlier work
[7] = frequency dependent block, pulse frequency 0.2 Hz, read-out: IC50 at 0.2 Hz
[8] = tonic block, low frequency stimulation 0.067 Hz, read-out: IC50 at 0.067 Hz
[9] = −80 mV (inactivation protocol), read-out: IC50 at −80 mV
[10] = −100 mV (non-inactivating protocol), read-out: IC50 at −100 mV

Compound | IC50 [1, 7] [nM] | IC50 [1, 8] [nM] | IC50 [2, 9] [nM] | Maximum Possible Effect ± SEM, Phase I [3] [%] | Maximum Possible Effect ± SEM, Phase II [3] [%] | Maximum Possible Effect ± SEM, Phase IIA [3] [%] | selectivity for N-type over P/Q-type channels [4] | selectivity for N-type over L-type channels [5] | IC50 [2, 10] [nM] | selective for T-type over L-type channels [6]
COc1c(C(C)(C)C)cc(C(=O)N(C)[C@@H]2CCN(C(=O)CCCCC(c3ccc(F)cc3)c3ccc(F)cc3)C2)cc1C(C)(C)C [Compound P1, (R)—N-{1-[6,6-Bis-(4-fluoro-phenyl)-hexanoyl]-pyrrolidin-3-yl}-3,5-di-tert-butyl-4-methoxy-N-methyl-benzamide] | 91 | 120 | 8 | 94 ± 11 | 79 ± 14 | 72 ± 16 | approximately 23 fold | ~75 fold | – | –
COc1c(C(C)(C)C)cc(C(=O)N(C)[C@H]2CCN(C(=O)CCCCC(c3ccc(F)cc3)c3ccc(F)cc3)C2)cc1C(C)(C)C [Compound P4, (S)-N-{1-[6,6-Bis-(4-fluoro-phenyl)-hexanoyl]-pyrrolidin-3-yl}-3,5-di-tert-butyl-4-methoxy-N-methyl-benzamide] | 62 | 93 | 390 | 50 ± 10 | 51 ± 10 | 42 ± 13 | approximately 12 fold | greater than 5000 fold | 230 | –
COCC(=O)O[C@]1(CCN(C)CCCc2nc3ccccc3[nH]2)CCc2cc(F)ccc2[C@@H]1C(C)C [Mibefradil] | – | – | – | – | – | – | – | – | – | 10-30 fold
(R)-6,6-Bis-(4-fluoro-phenyl)-hexanoic acid[1-(3,5-di-tert-butyl-4-methoxy-benzoyl)-pyrrolidin-3-yl]-methyl-amide [Compound P2] | 32 | 67 | 51 | 70 ± 8 | 82 ± 9 | 71 ± 12 | approximately 9 fold | greater than 1000 fold | 117 | –
(S)-6,6-Bis-(4-fluoro-phenyl)-hexanoic acid[1-(3,5-di-tert-butyl-4-methoxy-benzoyl)-pyrrolidin-3-yl]-methyl-amide [Compound P5] | 29 | 45 | 13 | 88 ± 13 | 62 ± 4 | 47 ± 5 | approximately 31 fold | greater than 2000 fold | 73 | –
